In publication PMC4278837, “A Cyclic Peptidic Serine Protease Inhibitor: Increasing Affinity by Increasing Peptide Flexibility” (PLoS ONE, 2014):
Read-outs that look alike come from different tables or passages of the source. One block for each molecule: values may come before it. Bridge positions count the residues as written; N and C are the ends. Peptide text beside a SMILES is read from it.

Assays:
huPA-H99Y [1] = target: T1, huPA-H99Y (Homo sapiens, UniProt P00749, H272Y); assay: Surface plasmon resonance analysis of peptide binding to huPA-H99Y; settings: SPR, 25°C, pH 7.4
T1 construct: To ensure that the uPAs purified from the conditioned media were completely in the two-chain form, they were treated with plasmin; hexa-His (C); made in house; host or cells: HEK293 6E suspension cells
Experimental: (§1) Surface plasmon resonance (SPR) analysis
(§2) To determine the equilibrium binding constants (KD), the association rate constants (kon) and dissociation rate constants (koff) for peptide binding to uPA, surface plasmon resonance analysis was performed on a Biacore T200 instrument (Biacore, Uppsala, Sweden). A CM5 chip was coupled with the uPA variant (muPA or huPAH99Y) to be analysed, by injecting a concentration of 30 µg/mL uPA in immobilization buffer (10 mM sodium acetate, pH 5.0), aiming for an immobilised level of approximately 500 response units (RU). Immobilisation was followed by surface blocking with ethanolamine. A reference cell was prepared in the same way, without coupling of uPA. Mupain-1 variants in HBS with 0.1% BSA, in a dilution series, were injected at a flow rate of 30 µL per min during 60 s at 25°C. Subsequently, the dissociation was monitored during 600 s. Kinetic constants (k on and k off) were calculated with the Biacore Evaluation Software, using the 1∶1 kinetic fit. The K D values were calculated as k off /k on.

huPA-H99Y [2] = target: T2, huPA-H99Y (Homo sapiens, UniProt P00749, C299A/H272Y/N322Q); assay: Isothermal titration calorimetry for binding to huPA-H99Y catalytic domain; settings: ITC, 25°C, pH 7.4
T2 construct: recombinant uPA catalytic domain (residues 159–411), harbouring a H99Y mutation; made in house; host or cells: Pichia pastoris X-33 (secreted)
Experimental: For these experiments, we used the catalytic domain of huPA-H99Y expressed in and purified from Pichia pastoris strain X-33 (see above). The protein was dissolved in and dialysed against a buffer of 20 mM sodium phosphate, pH 7.4, 140 mM NaCl. The protein concentration was determined by absorbance at 280 nm, using an extinction coefficient of 43810 M^−1cm^−1. The peptides were dissolved in the above-mentioned buffer. All isothermal titration calorimetry experiments were performed with a MicroCal^TM ITC200 instrument equilibrated to a temperature of 25°C (298oK). The concentration of uPA-H99Y catalytic domain used in the 200 µl sample cell was 5–50 µM, depending on the affinity of the ligand. Titrations were performed by injecting 2 µl of the ligand until the total syringe volume of 40 µl was spent. Titration of ligand into buffer was performed to obtain buffer correction. The equilibrium association constant KA and the reaction enthalpy ΔH were calculated by fitting the integrated titration peaks using a one-binding-site model in the ITC ORIGIN7 programme package. The following formulas for Gibbs free energy ΔG were used to analyse the measured energies
[drawing 4] (4) where R is the gas constant and T the absolute temperature. ΔS, the entropic change during the reaction, was calculated using equations 3 and 4 and the measured K A and ΔH values.

huPA-H99Y V41A = target: T3, huPA-H99Y V41A (Homo sapiens, UniProt P00749, H272Y/V208A); assay: Ki for inhibition of huPA-H99Y-V41A, chromogenic substrate; type: biochemical; settings: 37°C; means ± S.D.; read-out: K i for inhibition of huPA-H99Y-V41A
T3 construct: To ensure that the uPAs purified from the conditioned media were completely in the two-chain form, they were treated with plasmin; hexa-His (C); made in house; host or cells: HEK293 6E suspension cells
Description: (§3) Determination of Ki values
(§4) The initial reaction velocities were monitored at an absorbance of 405 nm. The inhibition constants (K i) were subsequently determined from the non-linear regression analyses of plots for V i/V o versus [I]0, using Equation 2, derived under assumption of competitive inhibition:
(§5) [drawing 2] (2) where V i and V 0 are the reaction velocities in the presence and absence of inhibitor, respectively; [S]0 and [I]0 are the substrate and inhibitor concentrations, respectively; K M is K M for substrate hydrolysis by each protease. In Equation 2, it is assumed that [S]free ≈ [S]0 and [I]free ≈ [I]0.

muPA Y99A = target: T4, muPA Y99A (Mus musculus, UniProt P06869, Y274A); assay: Ki for inhibition of muPA-Y99A, chromogenic substrate; type: biochemical, murine; settings: means ± S.D.; read-out: K i for inhibition of muPA-Y99A
T4 construct: To ensure that the uPAs purified from the conditioned media were completely in the two-chain form, they were treated with plasmin; hexa-His (C); made in house; host or cells: HEK293 6E suspension cells
Description: as §3, §4, §5

muPA K143A = target: T5, muPA K143A (Mus musculus, UniProt P06869, K322A); assay: Ki for inhibition of muPA-K143A, chromogenic substrate; type: biochemical, murine; settings: means ± S.D.; read-out: K i for inhibition of muPA-K143A
T5 construct: To ensure that the uPAs purified from the conditioned media were completely in the two-chain form, they were treated with plasmin; hexa-His (C); made in house; host or cells: HEK293 6E suspension cells
Description: as §3, §4, §5

huPA-H99Y Q192A = huPA-H99Y Q192A (Homo sapiens, UniProt P00749, H272Y/Q373A); assay: Ki for inhibition of huPA-H99Y-Q192A, chromogenic substrate; type: biochemical; parameters: To ensure that the uPAs purified from the conditioned media were completely in the two-chain form, they were treated with plasmin; hexa-His (C); made in house; host or cells: HEK293 6E suspension cells; settings: 37°C; means ± S.D.; read-out: K i for inhibition of huPA-H99Y-Q192A
Description: as §3, §4, §5

muPA S190A = target: T6, muPA S190A (Mus musculus, UniProt P06869, S373A); assay: Ki for inhibition of muPA-S190A, chromogenic substrate; type: biochemical, murine; settings: means ± S.D.; read-out: K i for inhibition of muPA-S190A
T6 construct: To ensure that the uPAs purified from the conditioned media were completely in the two-chain form, they were treated with plasmin; hexa-His (C); made in house; host or cells: HEK293 6E suspension cells
Description: as §3, §4, §5

muPA K41A = target: T7, muPA K41A (Mus musculus, UniProt P06869, K210A); assay: Ki for inhibition of muPA-K41A, chromogenic substrate; type: biochemical, murine; settings: means ± S.D.; read-out: K i for inhibition of muPA-K41A
T7 construct: To ensure that the uPAs purified from the conditioned media were completely in the two-chain form, they were treated with plasmin; hexa-His (C); made in house; host or cells: HEK293 6E suspension cells
Description: as §3, §4, §5

huPA-H99Y K143A = target: T8, huPA-H99Y K143A (Homo sapiens, UniProt P00749, H272Y/K320A); assay: Ki for inhibition of huPA-H99Y-K143A, chromogenic substrate; type: biochemical; settings: 37°C; means ± S.D.; read-out: K i for inhibition of huPA-H99Y-K143A
T8 construct: To ensure that the uPAs purified from the conditioned media were completely in the two-chain form, they were treated with plasmin; hexa-His (C); made in house; host or cells: HEK293 6E suspension cells
Description: as §3, §4, §5

huPA-H99Y R35A = target: T9, huPA-H99Y R35A (Homo sapiens, UniProt P00749, H272Y/R198A); assay: Ki for inhibition of huPA-H99Y-R35A, chromogenic substrate; type: biochemical; settings: 37°C; means ± S.D.; read-out: K i for inhibition of huPA-H99Y-R35A
T9 construct: To ensure that the uPAs purified from the conditioned media were completely in the two-chain form, they were treated with plasmin; hexa-His (C); made in house; host or cells: HEK293 6E suspension cells
Description: as §3, §4, §5

huPA-H99Y [3] = target: T1, huPA-H99Y; assay: Ki for inhibition of huPA-H99Y, chromogenic substrate S-2444; type: biochemical
Description: as §3, §4, §5

muPA wt = target: T10, muPA wt (Mus musculus, UniProt P06869); settings: means ± S.D.; starred values reproduced from previous publications; ref Andersen et al., 2008; Hosseini et al., 2011; read-out: K i for inhibition of muPA wt; cited from earlier work
T10 construct: To ensure that the uPAs purified from the conditioned media were completely in the two-chain form, they were treated with plasmin; hexa-His (C); made in house; host or cells: HEK293 6E suspension cells

muPA = target: T11, muPA (Mus musculus, UniProt P06869); assay: Surface plasmon resonance analysis of peptide binding to muPA; parameters: species or system murine; settings: SPR, 25°C, pH 7.4
T11 construct: To ensure that the uPAs purified from the conditioned media were completely in the two-chain form, they were treated with plasmin; hexa-His (C); made in house; host or cells: HEK293 6E suspension cells
Experimental: as §1, §2

muPA V213T = target: T12, muPA V213T (Mus musculus, UniProt P06869, V396T); assay: Ki for inhibition of muPA-V213T, chromogenic substrate; type: biochemical, murine; settings: means ± S.D.; read-out: K i for inhibition of muPA-V213T
T12 construct: To ensure that the uPAs purified from the conditioned media were completely in the two-chain form, they were treated with plasmin; hexa-His (C); made in house; host or cells: HEK293 6E suspension cells
Description: as §3, §4, §5

[4] = 37°C, means ± S.D., read-out: K i for inhibition of huPA-H99Y

T11 sequence (P06869 180-433 limits assumed): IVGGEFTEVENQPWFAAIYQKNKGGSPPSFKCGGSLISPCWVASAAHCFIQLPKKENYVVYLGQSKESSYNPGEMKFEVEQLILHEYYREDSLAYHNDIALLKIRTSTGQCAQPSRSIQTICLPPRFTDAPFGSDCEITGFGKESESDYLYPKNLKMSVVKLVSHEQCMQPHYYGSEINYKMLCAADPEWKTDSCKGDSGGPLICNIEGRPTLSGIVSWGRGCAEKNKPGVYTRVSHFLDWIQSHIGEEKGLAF
T11 sequence (P06869 21-178 partner limits assumed): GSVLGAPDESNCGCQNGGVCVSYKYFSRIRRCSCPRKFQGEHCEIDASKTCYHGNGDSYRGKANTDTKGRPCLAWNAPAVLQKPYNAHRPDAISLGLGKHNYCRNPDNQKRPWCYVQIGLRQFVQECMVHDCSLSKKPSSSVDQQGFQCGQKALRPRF
T4 sequence (P06869 180-433 Y274A): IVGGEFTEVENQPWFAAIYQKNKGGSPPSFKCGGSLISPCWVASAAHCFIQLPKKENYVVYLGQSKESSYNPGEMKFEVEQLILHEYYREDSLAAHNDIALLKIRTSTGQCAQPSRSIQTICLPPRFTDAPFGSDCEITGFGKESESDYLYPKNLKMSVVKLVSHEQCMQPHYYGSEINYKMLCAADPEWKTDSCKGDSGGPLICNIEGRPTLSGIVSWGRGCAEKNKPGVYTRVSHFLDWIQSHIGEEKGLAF
T4 sequence (P06869 21-178 partner limits assumed): as the sequence (P06869 21-178 partner limits assumed) above
T7 sequence (P06869 180-433 K210A): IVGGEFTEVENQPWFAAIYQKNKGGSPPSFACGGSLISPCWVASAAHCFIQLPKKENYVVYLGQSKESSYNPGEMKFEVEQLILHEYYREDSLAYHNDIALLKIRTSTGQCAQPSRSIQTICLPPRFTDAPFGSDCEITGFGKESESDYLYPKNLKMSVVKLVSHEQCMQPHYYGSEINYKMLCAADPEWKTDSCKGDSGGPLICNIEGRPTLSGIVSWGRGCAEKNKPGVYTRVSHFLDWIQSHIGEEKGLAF
T7 sequence (P06869 21-178 partner limits assumed): as the sequence (P06869 21-178 partner limits assumed) above
T6 sequence (P06869 180-433 S373A): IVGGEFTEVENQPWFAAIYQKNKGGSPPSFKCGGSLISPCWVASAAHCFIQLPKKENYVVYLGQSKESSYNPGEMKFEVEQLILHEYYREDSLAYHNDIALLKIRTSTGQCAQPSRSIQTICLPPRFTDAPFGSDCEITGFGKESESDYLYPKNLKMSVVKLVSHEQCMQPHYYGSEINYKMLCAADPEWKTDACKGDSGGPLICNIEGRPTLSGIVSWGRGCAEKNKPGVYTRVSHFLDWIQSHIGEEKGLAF
T6 sequence (P06869 21-178 partner limits assumed): as the sequence (P06869 21-178 partner limits assumed) above
T12 sequence (P06869 180-433 V396T): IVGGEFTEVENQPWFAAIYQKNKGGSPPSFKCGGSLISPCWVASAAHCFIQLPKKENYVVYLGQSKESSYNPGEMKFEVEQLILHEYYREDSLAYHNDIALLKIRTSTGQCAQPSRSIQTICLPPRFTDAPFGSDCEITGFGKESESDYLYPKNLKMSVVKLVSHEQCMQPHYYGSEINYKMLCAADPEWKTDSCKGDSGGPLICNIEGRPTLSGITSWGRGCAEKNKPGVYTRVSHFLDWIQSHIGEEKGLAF
T12 sequence (P06869 21-178 partner limits assumed): as the sequence (P06869 21-178 partner limits assumed) above
T5 sequence (P06869 180-433 K322A): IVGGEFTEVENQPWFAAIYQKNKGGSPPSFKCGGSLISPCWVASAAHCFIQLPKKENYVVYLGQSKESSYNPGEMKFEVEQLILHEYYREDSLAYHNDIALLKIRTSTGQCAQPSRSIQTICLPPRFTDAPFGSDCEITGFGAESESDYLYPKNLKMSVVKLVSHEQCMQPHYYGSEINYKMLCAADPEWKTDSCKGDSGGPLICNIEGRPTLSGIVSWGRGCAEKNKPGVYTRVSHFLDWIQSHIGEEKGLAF
T5 sequence (P06869 21-178 partner limits assumed): as the sequence (P06869 21-178 partner limits assumed) above
T10 sequence (P06869 180-433 limits assumed): as the sequence (P06869 180-433 limits assumed) above
T10 sequence (P06869 21-178 partner limits assumed): as the sequence (P06869 21-178 partner limits assumed) above

k off, huPA-H99Y (huPA-H99Y [1]): 36.6±0.21 (3) s^-1, ×10^2
k on, huPA-H99Y (huPA-H99Y [1]): 2.60±0.20 (3) M^-1s^-1, ×10^-5
Kd (huPA-H99Y [1]; calculated as k off/k on, read-out: K D, huPA-H99Y): 1.41 ± 0.11 µM
Kd (huPA-H99Y [2]): 1.17 ± 0.3 µM
Ki (huPA-H99Y V41A): 7.2 ± 1.44 µM
Ki (muPA Y99A): 27.2 ± 3.3 µM
Ki (muPA K143A): 4.34 ± 0.64 µM
Ki (huPA-H99Y Q192A): 4.85 ± 0.32 µM
Ki (muPA S190A): 3.02 ± 0.33 µM
Ki (muPA K41A): 0.27 ± 0.029 µM
Ki (huPA-H99Y K143A): 8.74 ± 0.64 µM
Ki (huPA-H99Y R35A): 2.68 ± 0.29 µM
Ki (huPA-H99Y [3]; [4]): 5.99 ± 0.43 µM
k off, muPA (muPA): 4.01±0.31 (3) s^−1, ×10^2
k on, muPA (muPA): 0.985±0.169 (3) M^−1s^−1, ×10^−5
Ki (muPA V213T): 0.373 ± 0.055 µM
Compound: CC(=O)N[C@H]1CSSC[C@@H](C(N)=O)NC(=O)[C@H](C)NC(=O)[C@H](CC(C)C)NC(=O)[C@H](Cc2ccc(O)cc2)NC(=O)[C@H](CCCNC(=N)N)NC(=O)[C@H](CO)NC(=O)[C@H](Cc2ccc(O)cc2)NC(=O)[C@H](C)NC(=O)[C@@H]2CCCN2C1=O [Mupain-1 D9A, CPAYSRYLAC] (Ac-CPAYSRYLAC-NH2; disulfide 1-10)
Ki (muPA wt): 0.89 ± 0.02 µM

Ki (huPA-H99Y [3]; [4]): > 1000 µM
Compound: CC(=O)N[C@H]1CSSC[C@@H](C(N)=O)NC(=O)[C@H](CC(=O)O)NC(=O)[C@H](CC(C)C)NC(=O)[C@H](Cc2ccc(O)cc2)NC(=O)[C@H](CCCNC(=N)N)NC(=O)[C@H](CO)NC(=O)[C@H](Cc2ccc(O)cc2)NC(=O)[C@H](C)NC(=O)[C@H](C)NC1=O [Mupain-1 P2A, CAAYSRYLDC] (Ac-CAAYSRYLDC-NH2; disulfide 1-10)

Compound: CC(=O)N[C@H]1CSSC[C@@H](C(N)=O)NC(=O)[C@H](CC(=O)O)NC(=O)[C@H](CC(C)C)NC(=O)[C@H](Cc2ccc(O)cc2)NC(=O)[C@H](C)NC(=O)[C@H](CO)NC(=O)[C@H](Cc2ccc(O)cc2)NC(=O)[C@H](C)NC(=O)[C@@H]2CCCN2C1=O [Mupain-1 R6A, CPAYSAYLDC] (Ac-CPAYSAYLDC-NH2; disulfide 1-10)
Ki (huPA-H99Y [3]): > 1000 µM

Ki (huPA-H99Y [3]; [4]): > 1000 µM
Compound: CC(=O)N[C@H]1CSSC[C@@H](C(N)=O)NC(=O)[C@H](CC(=O)O)NC(=O)[C@H](CC(C)C)NC(=O)[C@H](Cc2ccc(O)cc2)NC(=O)[C@H](CCCNC(=N)N)NC(=O)[C@H](C)NC(=O)[C@H](Cc2ccc(O)cc2)NC(=O)[C@H](C)NC(=O)[C@@H]2CCCN2C1=O [Mupain-1 S5A, CPAYARYLDC] (Ac-CPAYARYLDC-NH2; disulfide 1-10)
